# Measurements as given in patent US20170247326A1, “Substituted Pyrrolidine Carboxamide Compounds” (EPIZYME, INC., priority 2014, published 2017).
# Target: T1, SMYD2 (Homo sapiens, UniProt Q9NRG4)
# T1 construct: Full length SMYD2 (NP_064582.2) was cloned; His6 (N, cleaved yes); FLAG (N); made in house; host or cells: Sf9 insect cells
# Experiment: SMYD2 biochemical assay (3H-SAM, biotinylated peptide substrate, Flashplate)
# Conditions: Table 1; average of n = 1 to n = 50; read-out: SMYD2 Biochem IC50
# Excerpt: S-adenosylmethionine (SAM), S-adenosylhomocysteine (SAH), bicine, Tween20, dimethylsulfoxide (DMSO), bovine skin gelatin (BSG), and Tris(2-carboxyethyl)phosphine hydrochloride (TCEP) were purchased from Sigma-Aldrich at the highest level of purity possible. ^3H-SAM was purchase from American Radiolabeled Chemicals with a specific activity of 80 Ci/mmol. 384-well streptavidin Flashplates were purchased from PerkinElmer.
# Peptide was synthesized with a N-terminal linker-affinity tag motif and a C-terminal amide cap by 21st Century Biochemicals. The peptide was high high-performance liquid chromatography (HPLC) purified to greater than 95% purity and confirmed by liquid chromatography mass spectrometry (LC-MS). The sequence was […](K-Biot)-amide. (SEQ ID NO: 3)
# Full length SMYD2 (NP_064582.2) was cloned into a pFastbac-Htb-lic vector with an N-terminal His6 tag and FLAG tag, preceded by a TEV protease cleavage site. The protein was expressed in Sf9 insect cells. Cells were resuspended in lysis buffer (25 mM HEPES-NaOH, pH 7.5, 200 mM NaCl, 5% glycerol, and 5 mM […] and lysed by sonication. The protein was purified by Ni-NTA (Qiagen), followed by TEV cleavage to remove the His6 tag, subtractive Ni-NTA (Qiagen), and gel filtration chromatography using an S200 column (GE Healthcare). Purified protein was stored in 20 mM Tris-HCl, pH 8.0, 100 mM NaCl, and 1 mM TCEP.
# General Procedure for SMYD2 Enzyme Assays on Peptide Substrates
# The assays were all performed in a buffer consisting of 20 mM Bicine (pH=7.6), 1 mM TCEP, 0.005% Bovine Skin Gelatin, and 0.002% Tween20, prepared on the day of use. Compounds in 100% DMSO (1 ul) were spotted into a polypropylene 384-well V-bottom plates (Greiner) using a Platemate Plus outfitted with a 384-channel head (Thermo Scientific). DMSO (1 ul) was added to Columns 11, 12, 23, 24, rows A-H for the maximum signal control and 1 ul of SAH, a known product and inhibitor of SMYD2, was added to columns 11, 12, 23, 24, rows I-P for the minimum signal control. A cocktail (40 ul) containing the SMYD2 enzyme was added by Multidrop Combi (Thermo-Fisher). The compounds were allowed to incubate with SMYD2 for 30 min at room temperature, then a cocktail (10 ul) containing ^3H-SAM and peptide was added to initiate the reaction (final volume=51 ul). The final concentrations of the components were as follows: SMYD2 was 1.5 nM, ^3H-SAM was 10 nM, and peptide was 60 nM, SAH in the minimum signal control wells was 1000 uM, and the DMSO concentration was 2%. The assays were stopped by the addition of non-radioactive SAM (10 ul) to a final concentration of 600 uM, which dilutes the ^3H-SAM to a level where its incorporation into the peptide substrate is no longer detectable. 50 ul of the reaction in the 384-well polypropylene plate was then transferred to a 384-well Flashplate and the biotinylated peptides were allowed to bind to the streptavidin surface for at least 1 hour before being washed three times with 0.1% Tween20 in a Biotek ELx405 plate washer. The plates were then read in a PerkinElmer TopCount plate reader to measure the quantity of ^3H-labeled peptide bound to the Flashplate surface, measured as disintegrations per minute (dpm) or alternatively, referred to as counts per minute (cpm).
# Where dpm=disintegrations per minute, cmpd=signal in assay well, and min and max are the respective minimum and maximum signal controls.
# Where top and bottom are the normally allowed to float, but may be fixed at 100 or 0 respectively in a 3-parameter fit. The Hill Coefficient normally allowed to float but may also be fixed at 1 in a 3-parameter fit. I is the compound concentration.
# SMYD2 biochemical assay data for representative Compounds of the Disclosure are presented in Tables 1, 3, and 4 in the column titled “SMYD2 Bicohem IC50 (μM).”
# T1 sequence (Q9NRG4 whole entry): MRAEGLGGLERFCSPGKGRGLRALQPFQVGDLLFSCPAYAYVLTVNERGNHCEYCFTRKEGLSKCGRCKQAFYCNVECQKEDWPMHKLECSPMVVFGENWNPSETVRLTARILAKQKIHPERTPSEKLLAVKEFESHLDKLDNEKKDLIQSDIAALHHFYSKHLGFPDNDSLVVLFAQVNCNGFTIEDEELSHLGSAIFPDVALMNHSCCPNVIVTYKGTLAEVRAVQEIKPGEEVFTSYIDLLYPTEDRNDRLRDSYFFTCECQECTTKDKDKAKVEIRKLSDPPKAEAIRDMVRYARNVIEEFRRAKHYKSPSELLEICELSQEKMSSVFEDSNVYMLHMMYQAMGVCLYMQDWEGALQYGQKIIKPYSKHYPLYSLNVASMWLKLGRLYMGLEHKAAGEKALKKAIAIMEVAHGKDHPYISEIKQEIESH
row,SMILES,IC50 [µM]
1,"Cc1cc(C(=O)N[C@H]2CN(C3CC3)C[C@@H]2C)n(Cc2ccccc2)n1 (racemic) [compound 9, (±)-trans-1-benzyl-N-(1-cyclopropyl-4-methylpyrrolidin-3-yl)-3-methyl-1H-pyrazole-5-carboxamide]",> 50
2,"C[C@H]1CN(C2CC2)C[C@@H]1NC(=O)c1ccc2[nH]c(=O)oc2c1 (racemic) [compound 13, (±)-trans-N-(1-cyclopropyl-4-methylpyrrolidin-3-yl)-2-oxo-2,3-dihydrobenzo[d]oxazole-6-carboxamide]",> 50
3,"C[C@H]1CN(C2CC2)C[C@@H]1NC(=O)c1cn(C2CC2)nn1 (racemic) [compound 18, (±)-trans-1-cyclopropyl-N-(1-cyclopropyl-4-methylpyrrolidin-3-yl)-1H-1,2,3-triazole-4-carboxamide]",13.2
4,"C[C@H]1CN(C2CC2)C[C@@H]1NC(=O)c1ccc2c(c1)OC(F)(F)O2 (racemic) [compound 1, (±)-trans-N-(1-cyclopropyl-4-methylpyrrolidin-3-yl)-2,2-difluorobenzo[d][1,3]dioxole-5-carboxamide]",> 50
5,"CCc1cc(C(=O)N[C@@H]2CN(C3CC3)C[C@@H]2C)ns1 (racemic) [compound 12, (±)-cis-N-(1-cyclopropyl-4-methylpyrrolidin-3-yl)-5-ethylisothiazole-3-carboxamide]",7.1
6,"CC1Oc2ccc(C(=O)N[C@H]3CN(C4CC4)C[C@@H]3C)cc2NC1=O (mixture of isomers) [compound 7, (±)-trans-N-(1-cyclopropyl-4-methylpyrrolidin-3-yl)-2-methyl-3-oxo-3,4-dihydro-2H-benzo[b][1,4]oxazine-6-carboxamide]",> 50

# Same assay, conditions: Table 3; average of n = 1 to n = 50; read-out: SMYD2 Biochem IC50
row,SMILES,IC50 [µM]
1,"CC(C)N1C[C@H](C)[C@H](NC(=O)c2nnc(C3CC3)o2)C1 (racemic) [compound 53, (±)-cis-5-cyclopropyl-N-[4-methyl-1-(propan-2-yl)pyrrolidin-3-yl]-1,3,4-oxadiazole-2-carboxamide]",4.64
2,"C[C@@H]1CN(C2CC2)C[C@H]1NC(=O)c1cccc(N2CCCC2)c1 (racemic) [compound 34, (±)-trans-N-[1-cyclopropyl-4-methylpyrrolidin-3-yl]-3-(pyrrolidin-1-yl)benzamide]",> 50
3,"CC(C)N1C[C@H](C)[C@H](NC(=O)c2noc(C3CC3)n2)C1 (racemic) [compound 38, (±)-cis-5-cyclopropyl-N-[4-methyl-1-(propan-2-yl)pyrrolidin-3-yl]-1,2,4-oxadiazole-3-carboxamide]",> 50
4,"CC(C)N1C[C@@H](C)[C@H](NC(=O)c2cnc(C3CC3)cn2)C1 (racemic) [compound 52, (±)-trans-5-cyclopropyl-N-[4-methyl-1-(propan-2-yl)pyrrolidin-3-yl]pyrazine-2-carboxamide]",> 50
5,"CC(C)N1C[C@H](C)[C@H](NC(=O)c2cc(C3CC3)ncn2)C1 (racemic) [compound 50, (±)-cis-6-cyclopropyl-N-[4-methyl-1-(propan-2-yl)pyrrolidin-3-yl]pyrimidine-4-carboxamide]",16.7
6,"CC(C)N1C[C@@H](C)[C@H](NC(=O)CCN2CCCC2)C1 (racemic) [compound 55, (±)-trans-N-[4-methyl-1-(propan-2-yl)pyrrolidin-3-yl]-3-(pyrrolidin-1-yl)propanamide]",> 50
7,"CC(=O)N[C@@H]1CN(C(C)C)C[C@H]1C (racemic) [compound 58, (±)-trans-N-[4-methyl-1-(propan-2-yl)pyrrolidin-3-yl]acetamide]",> 50
8,"CC(C)N1C[C@@H](C)[C@H](NC(=O)c2ccc(C3CC3)c(=O)[nH]2)C1 (racemic) [compound 57, (±)-trans-5-cyclopropyl-N-[4-methyl-1-(propan-2-yl)pyrrolidin-3-yl]-6-oxo-1,6-dihydropyridine-2-carboxamide]",> 50
9,"CC(C)N1C[C@@H](C)[C@H](NC(=O)c2coc(C3CC3)n2)C1 (racemic) [compound 54, (±)-trans-2-cyclopropyl-N-[4-methyl-1-(propan-2-yl)pyrrolidin-3-yl]-1,3-oxazole-4-carboxamide]",> 50
10,"C[C@H]1CN(C2CC2)C[C@H]1NC(=O)c1cccc(N2CCCC2)c1 (racemic) [compound 31, (±)-cis-N-[1-cyclopropyl-4-methylpyrrolidin-3-yl]-3-(pyrrolidin-1-yl)benzamide]",> 50
11,"CC(C)N1C[C@@H](C)[C@H](NC(=O)c2ncc(C3CC3)cn2)C1 (racemic) [compound 66, (±)-trans-5-cyclopropyl-N-[4-methyl-1-(propan-2-yl)pyrrolidin-3-yl]pyrimidine-2-carboxamide]",> 50

# More lines, now with the values ahead:
row,IC50 [µM],SMILES
1,6.77,"CC(C)N1C[C@H](C)[C@H](NC(=O)c2ncc(C3CC3)o2)C1 (racemic) [compound 76, (±)-cis-5-cyclopropyl-N-[4-methyl-1-(propan-2-yl)pyrrolidin-3-yl]-1,3-oxazole-2-carboxamide]"
2,0.46,"C[C@H]1CN(Cc2ccc(OCc3ccccc3)cc2)C[C@H]1NC(=O)c1cn(C2CC2)nn1 (stereo in doubt) [compound 106, (±)-cis-N-(1-{[4-(benzyloxy)phenyl]methyl}-4-methylpyrrolidin-3-yl)-1-cyclopropyl-1H-1,2,3-triazole-4-carboxamide]"
3,> 50,"CC(C)N1C[C@@H](C)[C@H](NC(=O)c2ncc(C3CC3)o2)C1 (racemic) [compound 73, (±)-trans-5-cyclopropyl-N-[4-methyl-1-(propan-2-yl)pyrrolidin-3-yl]-1,3-oxazole-2-carboxamide]"
4,6.07,"CC(C)N1CCC(NC(=O)c2cc(C3CC3)cnn2)C1 (centres unmarked) [compound 95, 5-cyclopropyl-N-[1-(propan-2-yl)pyrrolidin-3-yl]pyridazine-3-carboxamide]"
5,10.5,"C[C@@H]1CN(Cc2ccc(OCc3ccccc3)cc2)C[C@H]1NC(=O)c1cn(C2CC2)nn1 (racemic) [compound 97, (±)-trans-N-(1-{[4-(benzyloxy)phenyl]methyl}-4-methylpyrrolidin-3-yl)-1-cyclopropyl-1H-1,2,3-triazole-4-carboxamide]"
6,> 50,"CC(C)N1C[C@H](C)[C@H](NC(=O)c2cc(O)c3c(c2)OCC(=O)N3)C1 (racemic) [compound 85, (±)-cis-5-hydroxy-N-[4-methyl-1-(propan-2-yl)pyrrolidin-3-yl]-3-oxo-3,4-dihydro-2H-1,4-benzoxazine-7-carboxamide]"
7,0.0917,"C[C@@H]1CN(Cc2ccc(OCc3ccccc3)cc2)C[C@@H]1NC(=O)c1cc(C2CC2)cnn1 (racemic) [compound 104, (±)-cis-N-(1-{[4-(benzyloxy)phenyl]methyl}-4-methylpyrrolidin-3-yl)-5-cyclopropylpyridazine-3-carboxamide]"
8,0.424,"CC(C)N1C[C@@H](C)[C@@H](NC(=O)c2cc(C3CC3)cnn2)C1 (stereo in doubt) [compound 110, (±)-cis-5-cyclopropyl-N-[4-methyl-1-(propan-2-yl)pyrrolidin-3-yl]pyridazine-3-carboxamide]"

# Same assay, conditions: Table 4; average of n = 1 to n = 50; read-out: SMYD2 Biochem IC50
row,SMILES,IC50 [µM]
1,"CNCCS(=O)(=O)N1C[C@H](C)[C@H](NC(=O)c2cc(C3CC3)cnn2)C1 (racemic) [compound 128, rac-5-cyclopropyl-N-((3R,4R)-4-methyl-1-((2-(methylamino)ethyl)sulfonyl)pyrrolidin-3-yl)pyridazine-3-carboxamide]",> 50
